Test results: patent US20090041818A1, “ANTIVIRAL AGENT, AND FABRIC AND ANTIVIRAL MEMBER […] AGENT” (priority 2003, published 2009)

Tested on: influenza type A virus, Cygnus columbianus/Shimane/499/83 (H5N3) (avian strain)

Compound: [O]=[Ca] [Sample 1, calcium oxide]
- antiviral effect (in words, comparison of samples): high antiviral effect
